pIC50: −log10 of the molar value. Calls of active or inactive are those of the source. The rule behind the calls is not given here.
Experiments:
HL-60 [1] = assay: Induction of apoptosis in human HL60 cells after 24 to 48 hrs by acridine orange and ethidium bromide staining based fluorescence microscopy; type: functional, cell-based; details: hl-60
[2] = Growth inhibition of human Caco2 cells after 48 hrs by MTT assay; type: functional, cell-based, Caco-2; details: Homo sapiens, Caco-2, 48 h; read-out: IC50
HL-60 [3] = assay: Induction of cell cycle arrest in human HL60 cells assessed as accumulation at S phase at 1 mM after 24 hrs by propidium iodide staining based flow cytometry (reference value: 54%); type: functional
[4] = Half life in pH 7.4 isotonic sodium phosphate buffer at 37 degC by HPLC-DAD-ESI-MS method; type: physicochemical
[5] = Growth inhibition of human HL60 cells after 48 hrs by MTT assay; type: functional, cell-based, HL-60; details: Homo sapiens, HL-60, 48 h; read-out: IC50
HL-60 [6] = assay: Induction of cell cycle arrest in human HL60 cells assessed as accumulation at G2M phase at 1 mM after 24 hrs by propidium iodide staining based flow cytometry (reference value: 12%); type: functional
HT-29 = assay: Growth inhibition of human HT-29 cells after 48 hrs by MTT assay; type: functional, cell-based; details: Homo sapiens, HT-29, 48 h; read-out: IC50
K562 = assay: Growth inhibition of human K562 cells after 48 hrs by MTT assay; type: functional, cell-based; details: Homo sapiens, K562, 48 h; read-out: IC50
[7] = target: T1, Ribonucleotide reductase (Homo sapiens) (UniProt P23921+Q7LG56); assay: Inhibition of ribonucleotide reductase in human HL60 cells assessed as intracellular dNTP pools level at 1.2 mM after 1 hr by HPLC method; type: cell-based; details: HL-60
HeLa = assay: Growth inhibition of human HeLa cells after 48 hrs by MTT assay; type: functional, cell-based; details: Homo sapiens, HeLa, 48 h; read-out: IC50
[8] = Half life in RPMI-1640 medium containing 10% fetal calf serum assessed as compound disappearance by HPLC-DAD-ESI-MS method; type: ADME, Bos taurus; details: cattle
HL-60 [9] = assay: Induction of cell cycle arrest in human HL60 cells assessed as accumulation at G1 phase at 1 mM after 24 hrs by propidium iodide staining based flow cytometry (reference value: 32%); type: functional
MCF7 = assay: Growth inhibition of human MCF7 cells after 48 hrs by MTT assay; type: functional, cell-based; details: Homo sapiens, MCF7, 48 h; read-out: IC50
HuT78 = assay: Growth inhibition of human HUT78 cells after 48 hrs by MTT assay; type: functional, cell-based; details: Homo sapiens, HuT78, 48 h; read-out: IC50
[10] = target: T1, Ribonucleotide reductase (Homo sapiens); assay: Inhibition of human recombinant ribonucleotide reductase at 1.2 mM; type: protein-complex assay

half-life [4]: > 72 h
pIC50 (HT-29): < 3.00
pIC50 (K562): 3.30
inhibition [7]: Active
pIC50 (HeLa): < 3.00
half-life [8]: > 72 h
pIC50 (MCF7): < 3.00
inhibition [10]: Active
SMILES: CCCC(CCC)C(=O)O[C@H]1[C@H](n2cnc3c(N)ncnc32)O[C@H](CO)[C@@]1(C)O
AC50 (HL-60 [1]): Not Active
pIC50 [2]: < 3.00
Activity (HL-60 [3]): 40%
pIC50 [5]: 3.19
Activity (HL-60 [6]): 9%
Activity (HL-60 [9]): 51%
pIC50 (HuT78): 3.04
